These results are taken from EP3643303A1, “COMPOUNDS FOR USE IN THE TREATMENT OR PREVENTION OF FIBROTIC DISEASES; PHARMACEUTICAL, COSMETIC COMPOSITIONS AND USES THEREOF” (InnovativeHealth Group SL, priority 2018, dated 2020).

Assay [1] has as its system normal human dermal fibroblasts (NHDFs). Kind of assay: Collagen secretion (Sircol Soluble Collagen Assay) in TGFβ-stimulated NHDFs. The format is cell-based. The settings on record: 1 h pre-treatment, TGFβ 24 h; Figure 4. The protocol: Next, NHDFs were used to correlate the effect of both isomers of CBD on Col1A2 transcriptional activity with collagen secretion. NHDFs were seeded in 24 well plates (5x10^4 cells/well), pre-treated with either (-)CBD or (+)CBD for 1 h and stimulated with TGFβ for the following 24 h. Collagen secretion was studied by collecting culture medium and measuring soluble collagen using the Sircol Soluble Collagen Assay (Biocolor, County Antrim, UK) following manufacturer's instructions.

Another assay relates to α-SMA. Kind of assay: α-SMA expression by Western blot in TGFβ-treated NIH-3T3 cells (myofibroblast differentiation). The format is cell-based. As to conditions: 1 h preincubation, TGFβ 10 ng/ml 24 h; Figure 5. How it is done:
It is well known that TGFβ drives the conversion of fibroblasts into myofibroblasts, and the accumulation of myofibroblasts cells in fibrotic skin is a hallmark of SSc. Myofibroblasts are characterized by the novo synthesis of α-smooth muscle actin (a-SMA) fibers. To investigate α-SMA expression NIH-3T3 cells were preincubated with either (+)CBD or (-)CBD for 1 h and then treated with TFGβ (10 ng/ml) for 24 h. Cells were washed with PBS and proteins extracted in 50 µl of lysis buffer (50 mM Tris-HCl pH 7.5, 150 mM NaCl, 10% glycerol and 1% NP-40) supplemented with 10mM NaF, 1 mM Na3VO4, 10 µg/ml leupeptine, 1 µg/ml pepstatin and aprotinin, and 1 µl/ml PMSF saturated. Protein concentration was determined by the Bradford assay (Bio-Rad, CA, USA) and 30 µg of proteins were boiled at 95 °C in Laemmli buffer and electrophoresed in 10% SDS/PAGE gels. Separated proteins were transferred to PVDF membranes (20V for 30 min) and blocked in TBS solution containing 0.1% Tween 20 and 5% non-fat dry milk for 1 hour at room temperature. Immunodetection of specific proteins was carried out by incubation with primary antibody against α-SMA (1:500; sc-32251, Santa Cruz). After washing membranes, horseradish peroxidase-conjugated secondary antibody was added and detected by chemiluminescence system (GE Healthcare Europe GmbH). […]
A general note: Immunoblotting shows a protein as a band on a membrane.

In another assay the test system is anandamide hydrolysis. As to conditions: Bisogno et al. 2001; cited from earlier work.
A further assay has as its system human COL1A2 promoter. Kind of assay: Col1A2 gene transcriptional activity (luciferase) in NIH-3T3-Col1A2-luc cells stimulated with TGFβ. The format is cell-based, mouse. The settings on record: TGFβ 10 ng/ml, 24 h; Figure 3. An excerpt:
The effect of CBD isomers on collagen transcriptional regulation in NIH-3T3 cells stably expressing the Col1A2-luc plasmid, which encodes the gene promoter of the pro-alpha2 chain component of type I collagen fused to the luciferase gene, was studied. NIH-3T3-COL1A2-Luc fibroblast cells were generated by stable transfection of the COL-1A2-Luc plasmid, containing sequences from -353 to +58 bp of the human COL1A2 promoter fused to the luciferase reporter gene, and pPURO plasmid. Cells are cultivated at a density of 1 x 10^4 cells/ml for 24 h at 37°C. Then the cells were treated with the CBD isomers at several concentrations and TGFβ (10 ng/ml) for 24 h. Then, the cells are washed with PBS and lysed in 50 µl lysis buffer containing 25 mM Tris-phosphate (pH 7.8), 8 mM MgCl2, 1 mM DTT, 1% Triton X-100, and 7% glycerol during 15 min. Luciferase activity and protein concentration is measured in the cell lysates, to calculate the RLU/µg of protein and the results expressed as the percentage of induction considering the value obtained with TGFβ as 100% activation. The protein concentration in the cell extracts was measured by the Bradford method (BioRad).

In a further assay the target is T1, human CB1 (Homo sapiens, UniProt P21554).
T1 construct: HEK-293T-CB1 (stably transfected with CB1 cDNA); expressed in transfected cells; host or cells: HEK-293T
The assay can be described thus: CB1 antagonism assay (CRE-Luc reporter) in HEK-293T-CB1 cells stimulated with WIN-55,212-2. The format is cell-based. As to conditions: 15 min preincubation, then WIN-55,212-2 for 6 h; CRE-Luc luciferase; Figure 1. The protocol:
To investigate the biological activities of the CBD enantiomers on CB1 and TRPV1 receptors were performed functional assays in both HEK-293T-CB1 and HEK-293T-TRPV1 cells, which overexpress human CB1 and TRPV-1 receptors respectively. HEK-293T-CB1 (stably transfected with CB1 cDNA) were maintained in supplemented DMEM medium containing 10% FBS and 1% antibiotics penicillin/streptomycin (DMEM complete medium) at 37°C in a humidified atmosphere of 5% CO2. The cells were incubated in 24-well plates (1x10^5 cell/ml) and transiently transfected with 0,1 µg/ml of the plasmid CRE-Luc that contains six consensus cAMP responsive elements (CRE) linked to firefly luciferase. Transient transfections were performed with Rotifect (Carl Roth GmbH, Karlsruhe, Germany) according to the manufacturer's instructions and harvested 24 h after transfection. For CB1 antagonistic activity the transfected cells were incubated with increasing concentrations of the CBD enantiomers for 15 min and then stimulated with WIN-55, 212-2 (CB1 agonist), during 6 h and then luciferase activity measured in the cell lysates. […]

The target in a further assay is TRPV-1 (Homo sapiens, UniProt Q8NER1). The settings on record: Bisogno et al. 2001; cited from earlier work.
TRPV-1, sequence (Q8NER1 whole entry, species assumed): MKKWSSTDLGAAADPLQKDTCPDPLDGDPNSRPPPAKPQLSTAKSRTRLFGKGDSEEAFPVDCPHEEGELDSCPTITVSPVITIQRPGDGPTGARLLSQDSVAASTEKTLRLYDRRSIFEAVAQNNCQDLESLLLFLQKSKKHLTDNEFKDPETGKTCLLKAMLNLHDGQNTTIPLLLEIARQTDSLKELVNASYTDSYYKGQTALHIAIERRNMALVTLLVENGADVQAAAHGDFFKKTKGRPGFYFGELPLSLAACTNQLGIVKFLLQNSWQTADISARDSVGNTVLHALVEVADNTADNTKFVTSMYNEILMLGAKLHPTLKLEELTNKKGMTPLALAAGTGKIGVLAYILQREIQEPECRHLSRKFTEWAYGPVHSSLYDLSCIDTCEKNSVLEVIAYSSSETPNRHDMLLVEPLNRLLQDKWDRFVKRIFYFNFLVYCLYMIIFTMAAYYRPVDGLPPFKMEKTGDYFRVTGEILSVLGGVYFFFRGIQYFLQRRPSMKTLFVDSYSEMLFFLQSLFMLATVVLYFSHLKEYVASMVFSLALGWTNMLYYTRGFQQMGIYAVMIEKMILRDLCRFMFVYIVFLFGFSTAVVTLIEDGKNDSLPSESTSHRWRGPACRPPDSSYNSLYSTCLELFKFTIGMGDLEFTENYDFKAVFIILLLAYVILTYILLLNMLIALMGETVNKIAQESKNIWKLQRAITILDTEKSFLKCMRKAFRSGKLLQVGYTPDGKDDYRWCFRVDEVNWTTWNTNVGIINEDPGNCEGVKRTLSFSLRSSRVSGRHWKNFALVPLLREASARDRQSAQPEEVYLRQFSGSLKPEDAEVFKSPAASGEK

T1 sequence (P21554 whole entry): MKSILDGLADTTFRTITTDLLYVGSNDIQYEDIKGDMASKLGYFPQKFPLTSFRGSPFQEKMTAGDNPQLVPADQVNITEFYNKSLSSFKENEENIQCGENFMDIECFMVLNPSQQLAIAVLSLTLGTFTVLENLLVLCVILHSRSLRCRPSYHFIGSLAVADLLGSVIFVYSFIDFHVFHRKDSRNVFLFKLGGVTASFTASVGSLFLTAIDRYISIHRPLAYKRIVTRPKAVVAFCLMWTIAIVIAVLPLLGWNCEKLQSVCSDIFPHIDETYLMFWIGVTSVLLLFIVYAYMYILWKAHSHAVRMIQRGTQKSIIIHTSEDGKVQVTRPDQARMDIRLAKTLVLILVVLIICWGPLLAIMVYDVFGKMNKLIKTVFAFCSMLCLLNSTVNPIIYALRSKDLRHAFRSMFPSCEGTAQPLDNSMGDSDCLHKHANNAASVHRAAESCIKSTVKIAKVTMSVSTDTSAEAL

On to `C=C(C)[C@H]1CCC(C)=C[C@@H]1c1c(O)cc(CCCCC)cc1O` [(+)CBD, (+)Cannabidiol], for which the “TGFβ-induced collagen release and deposition” value in assay [1] was “significantly inhibited”. The “expression α-SMA protein induced by TGFβ” value with α-SMA was “attenuated”. Also, the anandamide hydrolysis result in the assay with anandamide hydrolysis was “inhibited”. The “collagen promoter transcriptional activity” value in the assay with human COL1A2 promoter is reported as “significantly reduced”. Moreover, the CB1 antagonistic activity result on human CB1 is “clear CB1 antagonistic activity”. Also, at TRPV-1, the “activity of the TRPV-1” value is “modulated”.

In the case of `C=C(C)[C@@H]1CCC(C)=C[C@H]1c1c(O)cc(CCCCC)cc1O` [(-)CBD, 2-[(1R,6R)-3-methyl-6-prop-1-en-2-ylcyclohex-2-en-1-yl]-5-pentylbenzene-1,3-diol], in assay [1], the “TGFβ-induced collagen release and deposition” value was “significantly inhibited”. Also, the “expression α-SMA protein induced by TGFβ” value with α-SMA is “attenuated”. Moreover, the anandamide hydrolysis entry in the assay on anandamide hydrolysis is given as “inhibited”. Besides, in the assay with human COL1A2 promoter, the “collagen promoter transcriptional activity” value was “significantly reduced”. For the same compound, at human CB1, the CB1 antagonistic activity result is listed as “clear CB1 antagonistic activity”. In addition, the “activity of the TRPV-1” value on TRPV-1 is on record as “modulated”.
